Reference: US20250268975A1 (priority 2024, published 2025)
*1 amine or outer side, *2 acyl side, *3 side chain or, on linkers, in order; H or OH if unused. Where a SMILES comes first, the peptide text is derived from it. [ ]: non-standard residue; d: D form. X1 = CCCCCCCCCCCCCCN(CC(=O)[*:2])[*:1]; Nrpe = C[C@@H](NCC(=O)O)c1ccccc1; Nlys = NCCCCNCC(=O)O

System: transgenic Zaire Ebola virus (EBOV) of the Mayinga strain, expressing green fluorescent protein (EBOV-GFP)
Type: cell-based

## CCCCCCCCCCCCCCNCC(=O)N(CCCCN)CC(=O)N(CC(=O)N(CC(=O)N(CCCCN)CC(N)=O)[C@H](C)c1ccccc1)[C@H](C)c1ccccc1 [MXB-24,816, H-Ntetradec-Nlys-Nspe-Nspe-Nlys-NH2] (H-[X1][Nlys][Nrpe][Nrpe][Nlys]-NH2)
  antiviral activity against Ebola virus (inhibition of viral titers and GFP-positive Ebola virus replication): showed antiviral activity
